Here are results for four compounds from patent US7153865B2, “N-type calcium channel antagonists for the treatment of pain” (Astrazeneca AB, priority 2001, dated 2006).

The subject of experiment [1] is formalin-induced nocifensive behaviours. In words: Formalin test. Format: in vivo, rats. To be noted: dose 60, time 40, route IP (units of dose and time not given).
The target of another experiment is N-type calcium channel (Homo sapiens, UniProt Q00975). Nature of the experiment: N-channel FLIPR (Fluorescent Laser Imaging Plate Reader) assay. Format: cell-based. To be noted: differentiated IMR32 cells, 80 mM K+ stimulus; unit inferred.
Another experiment deals with NK-1 receptor. To be noted: phenylbenzoquinone-induced writhing and formalin test; compared with morphine; cited from earlier work.

Structures are written as SMILES.

For orientation: IC50 means the concentration at which inhibition is half-maximal.

Chain of N-type calcium channel (Q00975 whole entry): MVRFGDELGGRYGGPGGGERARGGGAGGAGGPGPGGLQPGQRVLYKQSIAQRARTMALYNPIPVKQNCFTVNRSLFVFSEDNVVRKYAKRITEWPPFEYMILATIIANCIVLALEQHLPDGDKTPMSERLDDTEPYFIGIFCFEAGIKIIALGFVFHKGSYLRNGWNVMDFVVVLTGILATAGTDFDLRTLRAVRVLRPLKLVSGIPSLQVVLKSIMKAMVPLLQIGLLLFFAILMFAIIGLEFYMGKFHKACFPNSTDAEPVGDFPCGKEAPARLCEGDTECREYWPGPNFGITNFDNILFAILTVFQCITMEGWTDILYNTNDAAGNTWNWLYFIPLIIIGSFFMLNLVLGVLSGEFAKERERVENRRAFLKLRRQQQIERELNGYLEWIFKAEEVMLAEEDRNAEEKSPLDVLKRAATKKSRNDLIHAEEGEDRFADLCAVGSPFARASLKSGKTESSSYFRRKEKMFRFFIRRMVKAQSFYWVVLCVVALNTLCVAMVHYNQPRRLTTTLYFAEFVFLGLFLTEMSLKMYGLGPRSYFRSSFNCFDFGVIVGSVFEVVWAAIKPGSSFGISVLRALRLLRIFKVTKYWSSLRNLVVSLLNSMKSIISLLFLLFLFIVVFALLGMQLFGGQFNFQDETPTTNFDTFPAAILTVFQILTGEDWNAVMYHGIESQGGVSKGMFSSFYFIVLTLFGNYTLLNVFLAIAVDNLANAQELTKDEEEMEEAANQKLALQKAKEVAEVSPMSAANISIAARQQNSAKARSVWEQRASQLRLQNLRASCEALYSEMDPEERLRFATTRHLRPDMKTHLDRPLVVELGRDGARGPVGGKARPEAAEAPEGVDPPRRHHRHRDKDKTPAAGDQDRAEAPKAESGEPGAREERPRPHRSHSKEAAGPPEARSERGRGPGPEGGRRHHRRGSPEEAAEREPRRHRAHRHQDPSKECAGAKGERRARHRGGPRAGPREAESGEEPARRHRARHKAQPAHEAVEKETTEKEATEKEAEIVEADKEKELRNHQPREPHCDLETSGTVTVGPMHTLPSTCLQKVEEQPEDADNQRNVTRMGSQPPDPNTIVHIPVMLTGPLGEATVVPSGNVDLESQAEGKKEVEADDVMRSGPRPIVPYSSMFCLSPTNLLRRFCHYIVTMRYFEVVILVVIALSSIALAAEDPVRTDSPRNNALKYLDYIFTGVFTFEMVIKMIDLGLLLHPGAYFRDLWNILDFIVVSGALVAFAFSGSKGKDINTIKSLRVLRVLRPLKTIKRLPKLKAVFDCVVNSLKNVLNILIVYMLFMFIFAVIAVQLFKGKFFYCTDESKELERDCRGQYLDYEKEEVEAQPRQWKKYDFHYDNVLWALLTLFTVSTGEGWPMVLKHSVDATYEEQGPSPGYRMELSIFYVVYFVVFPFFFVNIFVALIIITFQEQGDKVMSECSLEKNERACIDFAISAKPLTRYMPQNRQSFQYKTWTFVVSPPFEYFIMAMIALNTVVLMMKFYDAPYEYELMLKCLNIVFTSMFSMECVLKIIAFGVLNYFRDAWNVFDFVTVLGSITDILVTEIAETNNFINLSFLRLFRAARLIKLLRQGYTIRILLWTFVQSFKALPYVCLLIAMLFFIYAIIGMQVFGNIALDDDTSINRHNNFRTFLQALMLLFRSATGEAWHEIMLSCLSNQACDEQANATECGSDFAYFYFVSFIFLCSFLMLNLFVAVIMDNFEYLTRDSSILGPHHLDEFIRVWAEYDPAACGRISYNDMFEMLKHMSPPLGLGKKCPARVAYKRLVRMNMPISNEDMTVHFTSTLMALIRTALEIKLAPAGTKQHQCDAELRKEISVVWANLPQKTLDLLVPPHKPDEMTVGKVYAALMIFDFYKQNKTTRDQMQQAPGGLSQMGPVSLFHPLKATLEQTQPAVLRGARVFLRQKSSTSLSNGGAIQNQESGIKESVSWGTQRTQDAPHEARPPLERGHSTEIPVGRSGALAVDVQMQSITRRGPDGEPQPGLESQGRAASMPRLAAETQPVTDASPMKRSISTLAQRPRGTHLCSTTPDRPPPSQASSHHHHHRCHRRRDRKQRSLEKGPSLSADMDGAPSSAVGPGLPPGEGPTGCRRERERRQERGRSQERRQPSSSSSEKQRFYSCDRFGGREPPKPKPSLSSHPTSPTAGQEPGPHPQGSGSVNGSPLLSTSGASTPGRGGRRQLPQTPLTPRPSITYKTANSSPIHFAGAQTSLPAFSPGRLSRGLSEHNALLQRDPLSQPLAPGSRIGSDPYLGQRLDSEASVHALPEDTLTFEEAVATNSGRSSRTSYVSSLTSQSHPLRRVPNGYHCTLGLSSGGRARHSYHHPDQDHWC
Chain of N-type calcium channel (P54284 whole entry partner): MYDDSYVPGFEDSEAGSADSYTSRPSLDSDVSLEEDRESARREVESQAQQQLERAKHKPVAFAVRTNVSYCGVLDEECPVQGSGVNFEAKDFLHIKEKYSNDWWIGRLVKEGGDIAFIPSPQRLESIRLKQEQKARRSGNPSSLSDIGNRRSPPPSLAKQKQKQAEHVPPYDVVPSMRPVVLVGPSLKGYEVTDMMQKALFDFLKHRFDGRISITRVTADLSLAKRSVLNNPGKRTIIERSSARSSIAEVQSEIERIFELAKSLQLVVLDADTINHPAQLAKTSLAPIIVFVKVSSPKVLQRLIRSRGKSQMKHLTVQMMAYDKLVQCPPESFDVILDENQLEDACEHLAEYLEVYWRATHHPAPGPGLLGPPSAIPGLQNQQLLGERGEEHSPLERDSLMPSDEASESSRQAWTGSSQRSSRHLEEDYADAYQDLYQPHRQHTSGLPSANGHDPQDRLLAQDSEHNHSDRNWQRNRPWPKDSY
Chain of N-type calcium channel (P54289 25-956 partner limits assumed): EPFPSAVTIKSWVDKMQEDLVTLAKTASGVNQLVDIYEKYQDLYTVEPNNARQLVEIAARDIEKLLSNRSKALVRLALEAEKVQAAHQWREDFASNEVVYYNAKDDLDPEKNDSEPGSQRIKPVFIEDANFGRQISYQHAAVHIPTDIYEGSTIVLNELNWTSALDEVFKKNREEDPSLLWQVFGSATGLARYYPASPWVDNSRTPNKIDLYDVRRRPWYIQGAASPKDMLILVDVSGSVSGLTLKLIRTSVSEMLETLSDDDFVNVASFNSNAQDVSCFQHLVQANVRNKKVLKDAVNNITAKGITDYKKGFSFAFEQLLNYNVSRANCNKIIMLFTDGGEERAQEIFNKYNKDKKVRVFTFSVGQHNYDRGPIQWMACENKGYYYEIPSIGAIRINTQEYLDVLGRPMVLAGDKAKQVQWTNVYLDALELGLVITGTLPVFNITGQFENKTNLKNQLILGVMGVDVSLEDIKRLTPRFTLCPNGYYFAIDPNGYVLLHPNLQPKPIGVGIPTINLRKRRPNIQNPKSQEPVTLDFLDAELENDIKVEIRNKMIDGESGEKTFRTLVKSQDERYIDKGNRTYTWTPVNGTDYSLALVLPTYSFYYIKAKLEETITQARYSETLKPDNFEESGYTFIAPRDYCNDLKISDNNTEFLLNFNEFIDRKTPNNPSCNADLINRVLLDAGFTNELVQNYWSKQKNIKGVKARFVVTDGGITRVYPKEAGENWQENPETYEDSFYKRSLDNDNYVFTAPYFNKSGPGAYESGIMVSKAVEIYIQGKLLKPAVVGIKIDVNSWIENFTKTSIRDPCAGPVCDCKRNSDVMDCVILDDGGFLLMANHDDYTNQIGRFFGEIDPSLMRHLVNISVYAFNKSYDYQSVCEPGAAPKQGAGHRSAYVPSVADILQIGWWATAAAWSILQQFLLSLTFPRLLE
Chain of N-type calcium channel (P54289 957-1103 partner limits assumed): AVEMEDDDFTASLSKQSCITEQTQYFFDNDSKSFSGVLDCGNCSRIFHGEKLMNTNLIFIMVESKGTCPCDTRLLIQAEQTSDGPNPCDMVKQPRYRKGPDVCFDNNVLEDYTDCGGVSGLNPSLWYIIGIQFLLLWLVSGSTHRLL

Take `Clc1ccc(Nc2cc(Nc3ccccc3N3CCOCC3)nc3ccccc23)cc1Cl` [Example 2, N4-(3,4-Dichloro-phenyl)-N2-(2-morpholin-4-yl-phenyl)-quinoline-2,4-diamine]: the “Formalin test % inhibition (dose, time route)” value in experiment [1] is listed as 42 (60, 40, IP) %.

Turning to `Nc1ccccc1Nc1cc(Nc2ccc(Cl)c(Cl)c2)c2cccc(F)c2n1` [Example 14, N2-(2-Amino-phenyl)-N4-(3,4-dichloro-phenyl)-8-fluoro-quinoline-2,4-diamine], at N-type calcium channel, the IC50 came to 4.01 µM. Still for that read-out and setting: the figure for `Nc1ccccc1Nc1cc(Nc2ccc(Cl)c(Cl)c2)c2ccccc2n1` [Example 27, N2-(2-amino-phenyl)-N4-(3,4-dichloro-phenyl)-quinoline-2,4-diamine] is 9.82 µM.

As to `COc1ccccc1CC(=N)N1C[C@@H]2C(=O)CCC(c3ccccc3)(c3ccccc3)[C@@H]2C1` [RP 67,580], the “analgesia in chemo-nociception tests” value in the experiment on NK-1 receptor is “produced analgesia with potency comparable to that of morphine”.
